In US20170050966A1, “INHIBITING THE TRANSIENT RECEPTOR POTENTIAL A1 ION CHANNEL” (HYDRA BIOSCIENCES, INC., priority 2014, published 2017):
Values after ≈ are worked out from the molar mass of the structure shown. Where two headings read alike, the source gives them in different places.

Tests used:
[1] = Kinetic solubility in buffered solutions; format: physicochemical; conditions: aqueous buffer, kinetic from dmso stock, 24 hours ambient
Procedure: The solubilities of the compounds of Formula (I) were tested using the procedure outlined in Kerns, E. H., J Pharm Sci (2001) 90:1838-1858, incorporated herein by reference and described below. Data for solubility was obtained by this method for compounds of Formula (I) and included in Table 3. The chromatographic data was performed by HPLC using an Xbridge Shield RP18 column with the following column dimensions: 4.6×30 mm, 3.5 μm. The mobile phase consisted of deionized water (MPA) with trifluoroacetic acid added in at 0.1% (v/v) (MPC) and HPLC-grade acetonitrile (MPB). The mobile phase flow rate was 2.5 mL/min with the column and sampling operating at ambient temperature. UV detection was set to 280 nm.
Samples for analysis of the compounds of Formula (I) were prepared at a % v/v=1/19 (i.e., 10 μL of the stock solution into 190 μL of buffer) by spiking stock solutions of the compounds of Formula (I) into buffered solutions. Three buffered solution systems were prepared: pH 4.0 prepared from 50 mM sodium acetate in a 5% dextrose in water solution, pH 7.4 prepared from 75 mM sodium phosphate in a 1:1 ratio of sterilized water for injection to a 5% dextrose in water solution, and pH 9.0 prepared from 50 mM sodium bicarbonate in a 1:2 ratio of sterilized water for injection to a 5% dextrose in water solution. The samples were incubated on a microplate shaker at 300 rpm for 24 hours at ambient temperature. Following incubation, the samples were centrifuged for five minutes at 13 k rpm at ambient temperature. The resulting supernantant was extracted for HPLC analysis.

[2] = Oral PK and bioavailability of micronized Compound 2 suspension; format: in vivo; conditions: fasted cynomolgus monkeys
Procedure: Additional studies were conducted with micronized Compound 2 in rat, dogs (beagles), and cynomolgus monkeys. Animals received a 10 mg/kg dose oral dose of compound formulated as a suspension in 0.5% methyl cellulose in water for injection at a target concentration of 1 mg/mL, and administered a dose volume of 10 mL/kg by oral gavage in rats or fasted dogs and via oral delivery in fasted cynomolgus monkeys. The % F for the rats in these studies was 85%, 36% for the dogs, and 19% for the monkeys. FIG. 11 depicts the pharmacokinetic profile for these species.
Three studies were conducted in fasted cynomolgus monkeys to determine the PK profile and bioavailability of a suspension formulation of Compound 2. Three monkeys were administered a suspension containing 10 mg/kg micronized Compound 2 by oral gavage. Monkeys were bled before dosing and at 0.25, 0.50, 1, 2, 4, 6, 12, and 24 hours post-dosing. Compound 2 plasma levels were determined by LC/MS/MS. Additional studies were conducted to evaluate the PK profile at higher dose levels of Compound 2 administered to fasted monkeys as an oral suspension. Blood samples were collected prior to dosing and up to 24 hours post-dosing. An additional 48 hour blood sample was collected from monkeys dosed with 300 mg/kg Compound 2. Plasma levels of Compound 2 were determined by LC/MS/MS.

sheepTRPA1 = sheepTRPA1 (Ovis aries, UniProt A0ACI6QTQ3); experiment: TRPA1 IC50, whole-cell patch clamp; format: cell-based, Sheep; conditions: sheepTRPA1, 20 μM AITC; read-out: IC50 Inward current
Sequence of sheepTRPA1 (A0ACI6QTQ3 entry or part of it): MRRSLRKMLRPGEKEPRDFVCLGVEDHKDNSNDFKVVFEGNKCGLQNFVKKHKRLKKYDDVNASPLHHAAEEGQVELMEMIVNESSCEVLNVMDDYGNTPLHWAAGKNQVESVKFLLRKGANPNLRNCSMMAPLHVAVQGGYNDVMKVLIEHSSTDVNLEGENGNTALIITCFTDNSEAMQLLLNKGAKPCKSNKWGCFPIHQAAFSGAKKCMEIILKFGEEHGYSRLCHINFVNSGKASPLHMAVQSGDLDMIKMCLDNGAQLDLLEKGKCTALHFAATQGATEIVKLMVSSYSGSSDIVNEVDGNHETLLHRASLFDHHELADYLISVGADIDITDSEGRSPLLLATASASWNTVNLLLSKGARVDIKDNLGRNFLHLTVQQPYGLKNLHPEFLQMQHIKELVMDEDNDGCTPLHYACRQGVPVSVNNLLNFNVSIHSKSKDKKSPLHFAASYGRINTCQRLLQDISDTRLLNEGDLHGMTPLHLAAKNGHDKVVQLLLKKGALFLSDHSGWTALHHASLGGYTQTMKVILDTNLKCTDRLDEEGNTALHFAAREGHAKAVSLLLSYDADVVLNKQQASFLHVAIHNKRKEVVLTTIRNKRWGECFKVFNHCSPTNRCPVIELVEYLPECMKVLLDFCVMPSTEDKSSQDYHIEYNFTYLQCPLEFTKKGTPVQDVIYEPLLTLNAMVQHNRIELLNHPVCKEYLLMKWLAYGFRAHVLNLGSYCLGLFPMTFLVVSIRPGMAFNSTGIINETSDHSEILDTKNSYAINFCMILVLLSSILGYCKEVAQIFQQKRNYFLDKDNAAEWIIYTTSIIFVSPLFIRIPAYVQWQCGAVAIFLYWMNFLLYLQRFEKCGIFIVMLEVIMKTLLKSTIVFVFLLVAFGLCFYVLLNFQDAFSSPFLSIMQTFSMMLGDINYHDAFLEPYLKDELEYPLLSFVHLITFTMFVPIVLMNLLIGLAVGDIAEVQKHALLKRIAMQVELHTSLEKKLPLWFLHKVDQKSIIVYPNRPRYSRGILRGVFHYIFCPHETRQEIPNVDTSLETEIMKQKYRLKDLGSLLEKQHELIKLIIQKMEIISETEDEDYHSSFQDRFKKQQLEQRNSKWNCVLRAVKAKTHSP

[3] = PK comparison of capsule and suspension formulations; conditions: monkey, in vivo, po, 250 mg, monkeys
Procedure: Another study was conducted to compare the PK parameters of capsule and suspension formulations of Compound 2. All monkeys were dosed with 250 mg Compound 2. Two groups were dosed with the capsule formulation: one fasted and one allowed food ad libitum. The animals that received the suspension formulation were dosed using a nasogastric tube and were fasted. […] When the PK profile of the capsule formulation was compared in both fasted and fed monkeys, the bioavailability of Compound 2 capsules was numerically greater in fasted monkeys.

dogTRPA1 = dogTRPA1 (Canis lupus familiaris, UniProt A0A8I3Q1Q7); experiment: TRPA1 IC50, whole-cell patch clamp; format: cell-based, Dog; conditions: dogTRPA1, 10 μM AITC; read-out: IC50 Inward current
Sequence of dogTRPA1 (A0A8I3Q1Q7 1-1118): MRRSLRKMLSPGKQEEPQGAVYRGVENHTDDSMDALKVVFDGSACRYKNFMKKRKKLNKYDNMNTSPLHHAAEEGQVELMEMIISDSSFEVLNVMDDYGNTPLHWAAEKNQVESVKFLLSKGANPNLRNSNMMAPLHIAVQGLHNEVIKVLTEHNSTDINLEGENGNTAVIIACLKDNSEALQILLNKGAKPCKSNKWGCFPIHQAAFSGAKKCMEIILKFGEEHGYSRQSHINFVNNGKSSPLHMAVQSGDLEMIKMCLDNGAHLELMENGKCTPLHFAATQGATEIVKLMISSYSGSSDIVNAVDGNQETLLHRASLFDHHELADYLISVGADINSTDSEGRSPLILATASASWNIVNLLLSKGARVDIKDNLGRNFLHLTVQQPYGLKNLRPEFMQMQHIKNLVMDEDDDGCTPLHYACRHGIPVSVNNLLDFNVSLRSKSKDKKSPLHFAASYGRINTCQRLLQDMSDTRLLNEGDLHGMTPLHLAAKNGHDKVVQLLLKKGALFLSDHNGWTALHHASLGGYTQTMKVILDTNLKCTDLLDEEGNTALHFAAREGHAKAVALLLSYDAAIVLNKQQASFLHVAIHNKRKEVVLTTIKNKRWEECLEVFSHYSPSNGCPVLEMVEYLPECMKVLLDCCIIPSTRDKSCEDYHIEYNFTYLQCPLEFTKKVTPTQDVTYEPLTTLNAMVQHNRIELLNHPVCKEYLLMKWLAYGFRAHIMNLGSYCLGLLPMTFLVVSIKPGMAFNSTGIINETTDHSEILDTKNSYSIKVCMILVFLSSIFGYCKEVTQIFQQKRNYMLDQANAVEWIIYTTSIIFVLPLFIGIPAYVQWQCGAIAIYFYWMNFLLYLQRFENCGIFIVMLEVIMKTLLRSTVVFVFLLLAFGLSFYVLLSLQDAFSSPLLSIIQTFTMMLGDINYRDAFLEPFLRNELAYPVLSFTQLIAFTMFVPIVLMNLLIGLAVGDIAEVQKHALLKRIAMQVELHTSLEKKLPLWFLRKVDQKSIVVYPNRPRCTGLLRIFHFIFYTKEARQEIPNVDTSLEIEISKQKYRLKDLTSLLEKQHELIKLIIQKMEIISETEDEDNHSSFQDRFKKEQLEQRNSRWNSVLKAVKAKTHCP
From the text: The change in IC50 block in the presence of albumin and plasma was also studied. It is assumed that the pharmacological effect of a drug correlates to unbound plasma levels, which is known as the “free drug hypothesis”. The aim of this study was to estimate the change in IC50 for block of human TRPA1 (hTRPA1) by Compound 2 in the presence of physiologically relevant concentrations of albumin and plasma (see Table 7). The human form of TRPA1 was used to assess protein binding in all species due to technical issues. The whole-cell patch clamp technique as described in del Camino, D. et al. J Neurosci 74 (2010) 30:15165 was employed to measure current through hTRPA1 upon activation by allyl isothiocyanate (AITC), the active ingredient in mustard oil, in the presence of 1% (w/v) serum albumin or 25% (v/v) plasma from various species including human plasma (hPlasma), human serum albumin (HSA), rat plasma (rPlasma), rat serum albumin (RSA), dog plasma, and sheep serum albumin (sheepSA). […]
Data for TRPA1 inhibition was obtained by this method for the indicated compounds of Formula (I), with the relevant data included in Table 14 below. All currents were recorded in whole-cell configuration using EPC-9 and EPC-10 amplifiers and Patchmaster software (HEKA). […]

CYP2D6 = CYP2D6 (Homo sapiens, UniProt P10635); experiment: in vitro; conditions: probe Dextromethorphan
Sequence of CYP2D6 (P10635 whole entry): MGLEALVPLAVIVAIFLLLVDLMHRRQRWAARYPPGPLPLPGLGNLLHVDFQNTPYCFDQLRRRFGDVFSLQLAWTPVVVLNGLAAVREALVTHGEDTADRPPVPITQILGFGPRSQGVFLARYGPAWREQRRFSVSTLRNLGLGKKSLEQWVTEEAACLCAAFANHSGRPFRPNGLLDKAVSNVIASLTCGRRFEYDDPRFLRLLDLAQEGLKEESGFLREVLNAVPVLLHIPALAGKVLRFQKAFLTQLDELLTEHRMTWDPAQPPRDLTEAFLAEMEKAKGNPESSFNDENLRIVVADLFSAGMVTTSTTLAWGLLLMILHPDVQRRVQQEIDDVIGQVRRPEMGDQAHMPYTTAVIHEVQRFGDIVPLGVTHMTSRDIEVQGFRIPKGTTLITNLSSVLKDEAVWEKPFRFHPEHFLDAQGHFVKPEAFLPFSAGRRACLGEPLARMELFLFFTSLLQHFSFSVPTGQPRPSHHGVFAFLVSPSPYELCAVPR

[4] = tested on: T1, human CYP450 enzymes (seven isozymes tested); experiment: CYP450 inhibition, seven isozymes overall; format: biochemical; conditions: human, read-out: calculated IC50 values
T1 construct: other: seven isozymes tested

human CYP450 enzymes = experiment: CYP450 inhibition, seven isozymes overall; format: biochemical; conditions: 10 μM, seven isozymes tested
[5] = sodium acetate buffer, pH 4.0, 50 mM sodium acetate, read-out: pH 4.0 solubility
[6] = sodium bicarbonate buffer, pH 9.0, 50 mM sodium bicarbonate, read-out: pH 9.0 solubility
[7] = sodium phosphate buffer, pH 7.4, 75 mM sodium phosphate, read-out: pH 7.4 solubility

Row | solubility kinetic at 24 h [1, 5] | solubility kinetic at 24 h [1, 6] | solubility kinetic at 24 h [1, 7] | bioavailability ([2]; cynomolgus monkey, plasma, 10 mg/kg oral, micronized suspension) | Exposures on an AUC and Cmax basis versus dose ([2]; oral suspension) | IC50 (sheepTRPA1) | bioavailability ([3]; Capsule (fasted)) | bioavailability ([3]; Capsule (fed)) | bioavailability ([3]; Suspension (fasted)) | IC50 (dogTRPA1) | inhibition at 10 µM (CYP2D6) | IC50 [4] | maximum block of human CYP450 enzymes (human CYP450 enzymes) | SMILES
1 | 4 µg/mL (≈ 7.93 µM) | 2 µg/mL (≈ 3.96 µM) | 3 µg/mL (≈ 5.95 µM) |  |  |  |  |  |  |  |  |  |  | C[C@@H](C(=O)Nc1ccnc(-c2cnc(N3CCCC3(C)C)nc2)n1)n1cnc2c1c(=O)n(C)c(=O)n2C [Compound 1, (S)-2-(1,3-dimethyl-2,6-dioxo-2,3-dihydro-1H-purin-7(6H)-yl)-N-(2′-(2,2-dimethylpyrrolidin-1-yl)-[2,5′-bipyrimidin]-4-yl)propanamide]
2 | 85 µg/mL (≈ 156 µM) | 69 µg/mL (≈ 127 µM) | 71 µg/mL (≈ 130 µM) | 19% | increased with doses up to 1000 mg/kg | 3.28 ± 0.64 µM | 13% | 10% | 7.8% | 0.0235 ± 0.0064 µM | 9.5% | > 10 µM | up to 37% | C[C@@H](C(=O)Nc1ccnc(-c2cnc(N3CCC[C@H]3C(F)(F)F)nc2)n1)n1cnc2c1c(=O)n(C)c(=O)n2C [Compound 2, (S)-2-(1,3-dimethyl-2,6-dioxo-2,3-dihydro-1H-purin-7(6H)-yl)-N-(2′-((S)-2-(trifluoromethyl)pyrrolidin-1-yl)-[2,5′-bipyrimidin]-4-yl)propanamide]
